Where two headings read alike, the source gives them in different places. Marks after values point to notes of the source that are not given here.
How the values were obtained:
Botrytis cinerea = assay: In vivo preventive test on Botrytis cinerea (grey mould); details: gherkin plants, preventive spray, evaluated 4 to 5 days after inoculation
Method: The young plants of gherkin are treated by spraying the active ingredient prepared as described above. Control plants are treated only with an aqueous solution of acetone/Dimethyl sulfoxide/Tween®. After 24 hours, the plants are contaminated by spraying the leaves with an aqueous suspension of Botrytis cinerea spores. The contaminated gherkin plants are incubated for 4 to 5 days at 17° C. and at 90% relative humidity.

Puccinia recondita = assay: In vivo preventive test on Puccinia recondita (brown rust on wheat); details: wheat plants, preventive spray, evaluated 11 days after inoculation
Method: (§1) The young plants of wheat are treated by spraying the active ingredient prepared as described above. Control plants are treated only with an aqueous solution of acetone/Dimethyl sulfoxide/Tween®. After 24 hours, the plants are contaminated by spraying the leaves with an aqueous suspension of Puccinia recondita spores.

Pyricularia oryzae [1] = format: in vivo; details: 500 ppm of active ingredient; rice plants, preventive spray; evaluated 6 days after inoculation
Septoria tritici = assay: In vivo preventive test on Septoria tritici (leaf spot on wheat); details: wheat plants, preventive spray, evaluated 24 days after inoculation
Method: as §1, with “Septoria tritici” for “Puccinia recondita”

Sphaerotheca fuliginea = assay: In vivo preventive test on Sphaerotheca fuliginea (powdery mildew on cucurbits); details: gherkin plants, preventive spray, evaluated 15 days after inoculation
Method: as §1, with “gherkin” for “wheat”, “Sphaerotheca fuliginea” for “Puccinia recondita”

Uromyces appendiculatus = assay: In vivo preventive test on Uromyces appendiculatus (bean rust); details: bean plants, preventive spray, evaluated 11 days after inoculation
Method: as §1, with “bean” for “wheat”, “Uromyces appendiculatus” for “Puccinia recondita”

[2] = tested on: Blumeria graminis fsp. hordei; assay: Blumeria test (barley)/preventive; format: in vivo; details: 500 ppm of active ingredient, preventive, evaluated 7 days after inoculation
Method: (§2) Solvent: 49 parts by weight of N,N-dimethylacetamide Emulsifier: 1 part by weight of alkylaryl polyglycol ether To produce a suitable preparation of active compound, 1 part by weight of active compound or active compound combination is mixed with the stated amounts of solvent and emulsifier, and the concentrate is diluted with water to the desired concentration. To test for preventive activity, young plants are sprayed with the preparation of active compound or active compound combination at the stated rate of application. After the spray coating has been dried, the plants are dusted with spores of Blumeria graminis fsp. hordei. The plants are placed in the greenhouse at a temperature of approximately 18° C. and a relative atmospheric humidity of approximately 80% to promote the development of mildew pustules.

Fusarium culmorum = assay: Fusarium culmorum-test (wheat)/preventive; format: in vivo; details: 500 ppm of active ingredient, preventive, evaluated 5 days after inoculation
Method: Solvent: 49 parts by weight of N,N-dimethylacetamide
Emulsifier: 1 part by weight of alkylaryl polyglycol ether
To produce a suitable preparation of active compound, 1 part by weight of active compound or active compound combination is mixed with the stated amounts of solvent and emulsifier, and the concentrate is diluted with water to the desired concentration.
To test for preventive activity, young plants are sprayed with the preparation of active compound or active compound combination at the stated rate of application. After the spray coating has been dried, the plants are slightly injured by using a sandblast and afterwards they are sprayed with a conidia suspension of Fusarium culmorum.
The plants are placed in the greenhouse under a translucent incubation cabinet at a temperature of approximately 22° C. and a relative atmospheric humidity of approximately 100%.
The test is evaluated 5 days after the inoculation. 0% means an efficacy which corresponds to that of the untreated control, while an efficacy of 100% means that no disease is observed.

Fusarium graminearum = format: in vivo; details: 500 ppm of active ingredient; barley, preventive; evaluated 5 days after inoculation
[3] = tested on: Fusarium nivale (var. majus); assay: Fusarium nivale (var. majus)-test (wheat)/preventive; format: in vivo; details: 500 ppm of active ingredient, preventive, evaluated 5 days after inoculation
Method: as §2, with “slightly injured by using a sandblast and afterwards they are sprayed” for “dusted”, “a conidia suspension” for “spores”, “Fusarium nivale (var. majus).” for “Blumeria graminis fsp. hordei. The plants are placed in the greenhouse at a temperature of approximately 18° C. and a relative atmospheric humidity of approximately 80% to promote the development of mildew pustules.”

Leptosphaeria nodorum = Leptosphaeria nodorum test (wheat)/preventive; format: in vivo; details: 500 ppm of active ingredient, preventive, evaluated 8 days after inoculation
Method: as §2, with “sprayed” for “dusted”, “a spore suspension” for “spores”, “Leptosphaeria nodorum. […]” for “Blumeria graminis fsp. hordei.”, “22°” for “18°”, “80%.” for “80% to promote the development of mildew pustules.”

Phakopsora pachyrhizi = assay: Phakopsora test (soybeans)/preventive; format: in vivo; details: preventive, evaluated 7 days after inoculation
Podosphaera leucotricha = assay: Podosphaera test (apples)/preventive; format: in vivo; details: 100 ppm of active ingredient, preventive, evaluated 10 days after inoculation
Method: (§3) Solvent: 24.5 parts by weight of acetone • 24.5 parts by weight of dimethylacetamide Emulsifier: 1 part by weight of alkylaryl polyglycol ether To produce a suitable preparation of active compound, 1 part by weight of active compound is mixed with the stated amounts of solvent and emulsifier, and the concentrate is diluted with water to the desired concentration. To test for preventive activity, young plants are sprayed with the preparation of active compound at the stated rate of application. After the spray coating has dried on, the plants are inoculated with an aqueous spore suspension of the causal agent of apple mildew (Podosphaera leucotricha). The plants are then placed in a greenhouse at approximately 23° C. and a relative atmospheric humidity of approximately 70%.

Pyricularia oryzae [4] = format: in vivo; details: 500 ppm of active ingredient; rice, preventive; evaluated 8 days after inoculation
Venturia inaequalis = assay: Venturia test (apples)/preventive; format: in vivo; details: 100 ppm of active ingredient, preventive, evaluated 10 days after inoculation
Method: as §3, with “After the spray coating has dried on, the plants are inoculated with an aqueous spore suspension of the causal agent of apple mildew (Podosphaera leucotricha).” left out, “21°” for “23°”, “90%.” for “70%.”

Pyrenophora teres = assay: In vivo preventive test on Pyrenophora teres (net blotch on barley); details: barley plants, preventive spray, evaluated 14 days after inoculation
Method: as §1, with “barley” for “wheat”, “Pyrenophora teres” for “Puccinia recondita”

physchem = details: pH 2.7

SMILES: CC(C)(C)C(O)(Cc1cccnc1Cl)Cn1cncn1 (stereo not shown) [Example I-3]
- Eff. % (Botrytis cinerea; 500 ppm of active ingredient): 100%
- Eff. % (Puccinia recondita; 500 ppm of active ingredient): 97%
- Eff. % (Pyricularia oryzae [1]): 88%
- Eff. % (Septoria tritici; 500 ppm of active ingredient): 100%
- Eff. % (Sphaerotheca fuliginea; 500 ppm of active ingredient): 100%
- Eff. % (Uromyces appendiculatus; 500 ppm of active ingredient): 100%
- Eff. % [2]: 100%
- Eff. % (Fusarium culmorum): 100%
- Eff. % (Fusarium graminearum): 100%
- Eff. % [3]: 100%
- Eff. % (Leptosphaeria nodorum): 100%
- Eff. % (Phakopsora pachyrhizi; 100 ppm of active ingredient): 100%
- Eff. % (Podosphaera leucotricha): 100%
- Eff. % (Pyricularia oryzae [4]): 75%
- Eff. % (Venturia inaequalis): 100%
- LogP (pH 2.7): 1.94
- LogP (pH 7.8): 1.90

SMILES: CC(C)(C)C(O)(Cc1ccncc1Cl)Cn1cncn1 (stereo not shown) [Example I-4, 1-(3-chloropyridin-4-yl)-3,3-dimethyl-2-(1H-1,2,4-triazol-1-ylmethyl)butan-2-ol]
- Eff. % (Puccinia recondita; 100 ppm of active ingredient): 88%
- Eff. % (Pyrenophora teres; 100 ppm of active ingredient): 83%
- Eff. % (Sphaerotheca fuliginea; 100 ppm of active ingredient): 100%
- Eff. % (Uromyces appendiculatus; 100 ppm of active ingredient): 100%
- Eff. % [2]: 100%
- Eff. % (Fusarium culmorum): 93%
- Eff. % (Fusarium graminearum): 92%
- Eff. % [3]: 100%
- Eff. % (Leptosphaeria nodorum): 88%
- Eff. % (Phakopsora pachyrhizi; 100 ppm of active ingredient): 99%
- Eff. % (Venturia inaequalis): 94%
- chromatographic logP (physchem; reversed phase HPLC columns): 1.74

SMILES: CCC(C)(C)C(O)(Cc1ccncc1Cl)Cn1cncn1 (stereo not shown) [Example I-5]
- Eff. % (Botrytis cinerea; 100 ppm of active ingredient): 89%
- Eff. % (Puccinia recondita; 100 ppm of active ingredient): 90%
- Eff. % (Pyrenophora teres; 100 ppm of active ingredient): 83%
- Eff. % (Septoria tritici; 100 ppm of active ingredient): 97%
- Eff. % (Sphaerotheca fuliginea; 100 ppm of active ingredient): 100%
- Eff. % (Uromyces appendiculatus; 100 ppm of active ingredient): 100%
- Eff. % [2]: 100%
- Eff. % (Fusarium culmorum): 100%
- Eff. % (Fusarium graminearum): 100%
- Eff. % [3]: 100%
- Eff. % (Leptosphaeria nodorum): 100%
- Eff. % (Pyricularia oryzae [4]): 93%
- LogP (pH 2.7): 2.13^[a]

SMILES: CC(C)(C)C(O)(Cc1ccncc1F)Cn1cncn1 (stereo not shown) [Example I-6]
- Eff. % (Botrytis cinerea; 100 ppm of active ingredient): 100%
- Eff. % (Puccinia recondita; 100 ppm of active ingredient): 88%
- Eff. % (Septoria tritici; 100 ppm of active ingredient): 98%
- Eff. % (Sphaerotheca fuliginea; 100 ppm of active ingredient): 100%
- Eff. % (Uromyces appendiculatus; 100 ppm of active ingredient): 100%
- Eff. % [2]: 100%
- Eff. % (Fusarium culmorum): 100%
- Eff. % (Fusarium graminearum): 100%
- Eff. % [3]: 100%
- Eff. % (Leptosphaeria nodorum): 100%
- Eff. % (Phakopsora pachyrhizi; 100 ppm of active ingredient): 99%
- Eff. % (Pyricularia oryzae [4]): 94%
- Eff. % (Venturia inaequalis): 96%
- LogP (pH 2.7): 1.41^[a]

SMILES: CCC(C)(C)C(O)(Cc1ccncc1F)Cn1cncn1 (stereo not shown) [Example I-7]
- Eff. % (Botrytis cinerea; 100 ppm of active ingredient): 97%
- Eff. % (Puccinia recondita; 100 ppm of active ingredient): 81%
- Eff. % (Septoria tritici; 100 ppm of active ingredient): 81%
- Eff. % (Sphaerotheca fuliginea; 100 ppm of active ingredient): 100%
- Eff. % (Uromyces appendiculatus; 100 ppm of active ingredient): 100%
- Eff. % [2]: 100%
- Eff. % (Fusarium culmorum): 100%
- Eff. % (Fusarium graminearum): 100%
- Eff. % [3]: 100%
- Eff. % (Leptosphaeria nodorum): 100%
- Eff. % (Pyricularia oryzae [4]): 89%
- LogP (method [a]: LC-MS at pH 2.7, 0.1% formic acid in water / acetonitrile gradient): 1.73^[a]

SMILES: CC(C)(C)C(O)(Cc1ccnc(Cl)c1F)Cn1cncn1 (stereo not shown) [Example I-27]
- Eff. % (Botrytis cinerea; 500 ppm of active ingredient): 100%
- Eff. % (Puccinia recondita; 500 ppm of active ingredient): 98%
- Eff. % (Pyrenophora teres; 500 ppm of active ingredient): 97%
- Eff. % (Septoria tritici; 500 ppm of active ingredient): 97%
- Eff. % (Sphaerotheca fuliginea; 500 ppm of active ingredient): 100%
- Eff. % (Uromyces appendiculatus; 500 ppm of active ingredient): 100%
- Eff. % [2]: 100%
- Eff. % (Fusarium culmorum): 100%
- Eff. % (Fusarium graminearum): 100%
- Eff. % [3]: 100%
- Eff. % (Leptosphaeria nodorum): 88%
- Eff. % (Phakopsora pachyrhizi; 10 ppm of active ingredient): 75%
- LogP (pH 2.7): 2.16^[a]

SMILES: CC(C)(C)C(O)(Cc1cc(F)ncc1Cl)Cn1cncn1 (stereo not shown) [Example I-29]
- Eff. % (Botrytis cinerea; 500 ppm of active ingredient): 100%
- Eff. % (Puccinia recondita; 500 ppm of active ingredient): 100%
- Eff. % (Pyrenophora teres; 500 ppm of active ingredient): 93%
- Eff. % (Septoria tritici; 500 ppm of active ingredient): 100%
- Eff. % (Sphaerotheca fuliginea; 500 ppm of active ingredient): 100%
- Eff. % (Uromyces appendiculatus; 500 ppm of active ingredient): 100%
- Eff. % [2]: 100%
- Eff. % (Fusarium culmorum): 100%
- Eff. % (Fusarium graminearum): 100%
- Eff. % [3]: 100%
- Eff. % (Leptosphaeria nodorum): 100%
- Eff. % (Phakopsora pachyrhizi; 10 ppm of active ingredient): 78%
- Eff. % (Pyricularia oryzae [4]): 71%
- LogP (pH 2.7): 2.39^[a]

SMILES: CC(C)(C)C(=O)Cc1cccnc1Cl [Example V-4, 1-(2-chloropyridin-3-yl)-3,3-dimethylbutan-2-one]
- chromatographic logP (physchem): 2.34

SMILES: CC(C)(C)C1(Cc2ccncc2Cl)CO1 (stereo not shown) [XII-5, 4-[(2-tert-butyloxiran-2-yl)methyl]-3-chloropyridine]
- chromatographic logP (physchem): 2.8

— patent US9668481B2, “Triazole derivatives” (priority 2013, dated 2017)
